These results are taken from patent US20080044390A1, “Methods and compositions for the treatment of neurodegenerative disorders” (priority 2006, published 2008).

The test has as its system PC12/HttN90Q103 cells. Briefly: ATPlite assay, rescue of HttN90Q103-induced cell death. It counts as cell-based, rat. The text has this: In this stable PC12 line (PC12/HttN90Q103), transcription of the Htt transgene is driven by an ecdysone-regulated promoter such that the expression of HttN90Q103 can be turned on or off by the addition or removal of the non-steroidal ecdysone analog tebufenozide (teb).
Using the engineered PC12/HttN90Q103 cell line together with Perkin Elmer's ATPlite™ assay kit or CellTiter-Blue™ assay, a high throughput assay to screen small molecules for their ability to prevent mutant Htt exon 1-induced cell death was developed and optimized.
The following formulas were used to calculate mutant Htt-induced cytotoxicity and test compound rescue: % killing=[(un-induced−induced-DMSO treated)/un-induced]×100 % rescue=[(drug treated−induced-DMSO treated)/(un-induced−induced-DMSO treated)]×100
For single-agent ranking, the assay was performed in 384-well plates to obtain duplicate dose response curves in 12-step dilutions with a dosing ratio f=2 over 3 orders of magnitude. […]
Day 1—Add Compounds 4 hours post-induction • 1) Remove compound plates from dessicator. • 2) Using the PlateMate, prepare dilution plate with 100 μL per well of the complete cell medium at room temperature in clear untreated 384-well plates. • 3) Using the MiniTrak, make compound dilution plates: 1 μL from each well of stock plates into 100 μL of media in the dilution plate for a 1:100 dilution (10× stock in media). • 4) Using the MiniTrak, add 4.5 μL of the diluted stock to each well of cells in assay plates. • 5) Make positive control solution: dilute 20 mM stock of BOC-D-FMK in media for a 10× stock. • 6) Manually add 4.5 μL positive control to C1-N1. • 7) Incubate plates at 37° C. for three days. • (for ranking combinations, steps 5 and 6 are omitted as there is positive control on the compound plates)
Day 4—Perform ATPlite™ Assay • 1) Take plates out of the incubator. • 2) Using the PlateMate, add 40 μL of ATPlite™ 1-step solution (Perkin Elmer) to each well of the assay plates. • 3) Wait ten minutes to allow plates to dark-adapt. • 4) Read luminescence intensity in Wallac plate reader using […]
For orientation: Cellular ATP, detected with luciferase, serves as a proxy for viable cell number.

[1] abbreviates: Rattus norvegicus, PC-12, ATPlite, single agent, 250 nM tebufenozide induction, read-out: Max Effect (% rescue).
Setting [2] is: Rattus norvegicus, PC-12, ATPlite, single agent, sigmoidal fit of 12-step dose response, read-out: EC50.
Setting [3] is: ATPlite, single agent, 250 nM tebufenozide induction.
[4] abbreviates: ATPlite, single agent, sigmoidal fit of 12-step dose response, read-out: EC50.
The mark [5] stands for this setting: Rattus norvegicus, PC-12, read-out: Max Effect (% rescue).

A word on the EC50: it is the concentration at which the effect is half-maximal.

Where two headings read alike, the source gives them in different places.

For `CCCCC1C(=O)NN(c2ccccc2)C1=O` (stereo not drawn) [Mofebutazone], the Emax under setting [1] was found to be 19%. Besides, the concentration giving a half-maximal response (EC50) under setting [2] amounted to 5.6 µM.

As for `CC[C@@H](C(=O)O)[C@@H]1O[C@@H]([C@@H](C)[C@H](O)[C@H](C)C(=O)[C@H](CC)[C@H]2O[C@]3(C=C[C@@H](O)[C@]4(CC[C@@](C)([C@H]5CC[C@](O)(CC)[C@H](C)O5)O4)O3)[C@H](C)C[C@@H]2C)[C@@H](C)C[C@@H]1C` [Narasin], under setting [1], the Emax was determined as 15%. In addition, the EC50 under setting [2] amounted to 0.1 µM. On to `CO[C@@H]1C[C@@H](C[C@H]2CC[C@H](C)[C@H]([C@@H](C)C(=O)O)O2)O[C@]2(O[C@](C)([C@H]3CC[C@@](C)([C@@H]4O[C@@H]([C@H]5O[C@@](O)(CO)[C@H](C)C[C@@H]5C)C[C@@H]4C)O3)C[C@H]2C)[C@@H]1C` [Nigericin], for which the Emax under setting [1] worked out at 36%. On to `O=C1Nc2ccc3ncsc3c2/C1=C/c1cnc[nH]1` [PKR inhibitor], for which, under setting [3], the “Max Effect (% rescue)” value is 124%. In addition, under setting [4], the EC50 amounted to 1.2 µM. Consider `Cc1ncc(CSSCc2cnc(C)c(O)c2CO)c(CO)c1O` [Pyritinol], for which the Emax under setting [1] was 17%. The EC50 under setting [2] is 15.1 µM. On the same counts, the results for `CC(=O)C(=O)O` [Pyruvate] are 5% and 1.2 µM. Take `CC(C)[C@H](NC(=O)c1ccc2ccccc2n1)C(=O)N[C@@H](CC(=O)O)C(=O)COc1c(F)cccc1F` [Q-VD-OPH]: the “Max Effect (% rescue)” value under setting [3] was found to be 72%. For the same compound, under setting [4], the EC50 turned out to be 0.6 µM. `O=c1c(O)c(-c2ccc(O)c(O)c2)oc2cc(O)cc(O)c12` [Quercetin]: the Emax under setting [1] is 23%. For the same compound, the EC50 under setting [2] turned out to be 16.4 µM. On the same counts, the results for `CN(CCOc1ccc(CC2SC(=O)NC2=O)cc1)c1ccccn1` (stereo not drawn) [Rosiglitazone] are 13% and 8.5 µM. Regarding `COc1ccc2c(c1)/C(=C/c1cnc[nH]1)C(=O)N2` [SU9516, 3-[1-(3H-imidazol-4-yl)-meth-(Z)-ylidene]-5-methoxy-1,3-dihydro-indol-2-one], under setting [1], the Emax worked out at 66%. For the same compound, the EC50 under setting [2] was determined as 3.3 µM.

Turning to `CC[C@@H](C(=O)[C@@H](C)[C@@H](O)[C@H](C)[C@@H]1O[C@@H]([C@@H](CC)C(=O)O)CC[C@@H]1C)[C@H]1O[C@]2(C=C[C@@H](O)[C@]3(CC[C@@](C)([C@H]4CC[C@](O)(CC)[C@H](C)O4)O3)O2)[C@H](C)C[C@@H]1C` [Salinomycin], the concentration for a half-maximal effect (EC50) (Rattus norvegicus, PC-12) was 0.2 µM. For the same compound, under setting [5], the Emax is 24%.

As for `CC(=O)S[C@@H]1CC2=CC(=O)CC[C@]2(C)[C@H]2CC[C@@]3(C)[C@@H](CC[C@@]34CCC(=O)O4)[C@H]12` [Spironolactone], the Emax under setting [1] was 22%. Moreover, the EC50 under setting [2] was 9.1 µM. On the same counts, the results for `c1ccc(CN(CCN(Cc2ccccn2)Cc2ccccn2)Cc2ccccn2)nc1` [TPEN, N,N,N′,N′-tetrakis(2-pyridylmethyl)-ethylenediamine] are 15% and 3 µM. On the same counts, the results for `Nc1c2c(nc3ccccc13)CCCC2` [Tacrine] are 15% and 39.6 µM. The corresponding values for `NC1CCN(c2nc3c(cc2F)c(=O)c(C(=O)O)cn3-c2ccc(F)cc2F)C1` (stereo not drawn) [Tosufloxacin] are 20% and 9.9 µM.

With `N#C/C(=C\c1ccc(O)c(O)c1)C(N)=O` [Tyrphostin 46], the “Max Effect (% rescue)” value under setting [3] is 23%. Also, the EC50 under setting [4] came to 23.5 µM. As to `CC(=O)ON=C1C(=O)N(Cc2cc(Cl)ccc2Cl)c2ccc(Cl)cc21` [UCH-L1 inhibitor], the “Max Effect (% rescue)” value under setting [3] turned out to be 21%. Under setting [4], the EC50 turned out to be 0.5 µM. As for `O=S(=O)([O-])[O-].[O]=[V+2]` [Vanadyl], under setting [3], the “Max Effect (% rescue)” value turned out to be 19%. The EC50 under setting [4] stood at 0.6 µM. `CN1CCN(C(=O)OC2c3nccnc3C(=O)N2c2ccc(Cl)cn2)CC1` (stereo not drawn) [Zopiclone]: under “Rattus norvegicus, PC-12”, the EC50 worked out at 6.7 µM. Besides, under setting [5], the Emax worked out at 25%. As to Maduramicin NH4, under setting [3], the “Max Effect (% rescue)” value came to 19%. In addition, under setting [4], the EC50 turned out to be 0.04 µM.
